Where two headings read alike, the source gives them in different places.
Columns and labels:
[1] = Solid-phase analyses; format: physicochemical; conditions: after saturation in neat water, x1=0.50 mixture and neat NMP
[2] = Preferential solvation analysis by inverse Kirkwood–Buff integrals; format: physicochemical; conditions: NMP+water, T=298.15 K
[3] = cited from earlier work
[4] = calculated by Fedors' groups contribution method; cited from earlier work

## Cc1cnc(NC(=O)C2=C(O)c3ccccc3S(=O)(=O)N2C)s1 [Meloxicam, 4-hydroxy-2-methyl-N-(5-methyl-2-thiazolyl)-2H-1,2-benzothiazine-3-carboxamide-1,1-dioxide]
[1]
  Crystal form after saturation (XRD, FTIR): did not suffer crystal polymorphic transitions or solvate formation
[2]; x1=0.00
  100 δx1,3 (preferential solvation parameter by NMP): 0.00
  D (derivative of Gibbs energy of transfer vs x1): –71.31 kJ·mol^–1
  G1,3 (Kirkwood–Buff integral): –702.7 cm^3·mol^–1
  G2,3 (Kirkwood–Buff integral): –182.2 cm^3·mol^–1
[2]; x1=0.05
  100 δx1,3 (preferential solvation parameter by NMP): –3.21
  D (derivative of Gibbs energy of transfer vs x1): –64.29 kJ·mol^–1
  G1,3 (Kirkwood–Buff integral): –669.9 cm^3·mol^–1
  G2,3 (Kirkwood–Buff integral): –311.3 cm^3·mol^–1
  δx1,3 (preferential solvation parameter by NMP): −3.21 × 10^–2
[2]; x1=0.10
  100 δx1,3 (preferential solvation parameter by NMP): –3.19
  D (derivative of Gibbs energy of transfer vs x1): –57.63 kJ·mol^–1
  G1,3 (Kirkwood–Buff integral): –596.6 cm^3·mol^–1
  G2,3 (Kirkwood–Buff integral): –417.0 cm^3·mol^–1
  δx1,3 (preferential solvation parameter by NMP): −3.19 × 10^–2
[2]; x1=0.15
  100 δx1,3 (preferential solvation parameter by NMP): –0.64
  D (derivative of Gibbs energy of transfer vs x1): –51.33 kJ·mol^–1
  G1,3 (Kirkwood–Buff integral): –513.2 cm^3·mol^–1
  G2,3 (Kirkwood–Buff integral): –484.4 cm^3·mol^–1
[2]; x1=0.20
  100 δx1,3 (preferential solvation parameter by NMP): 1.92
  D (derivative of Gibbs energy of transfer vs x1): –45.42 kJ·mol^–1
  G1,3 (Kirkwood–Buff integral): –438.6 cm^3·mol^–1
  G2,3 (Kirkwood–Buff integral): –519.2 cm^3·mol^–1
[2]; x1=0.25
  100 δx1,3 (preferential solvation parameter by NMP): 3.70
  D (derivative of Gibbs energy of transfer vs x1): –39.89 kJ·mol^–1
  G1,3 (Kirkwood–Buff integral): –378.9 cm^3·mol^–1
  G2,3 (Kirkwood–Buff integral): –532.6 cm^3·mol^–1
[2]; x1=0.30
  100 δx1,3 (preferential solvation parameter by NMP): 4.75
  D (derivative of Gibbs energy of transfer vs x1): –34.76 kJ·mol^–1
  G1,3 (Kirkwood–Buff integral): –332.9 cm^3·mol^–1
  G2,3 (Kirkwood–Buff integral): –533.5 cm^3·mol^–1
[2]; x1=0.35
  100 δx1,3 (preferential solvation parameter by NMP): 5.27
  D (derivative of Gibbs energy of transfer vs x1): –30.04 kJ·mol^–1
  G1,3 (Kirkwood–Buff integral): –298.0 cm^3·mol^–1
  G2,3 (Kirkwood–Buff integral): –527.4 cm^3·mol^–1
[2]; x1=0.40 (maximum)
  δx1,3 (preferential solvation parameter by NMP): 5.41 × 10^–2
[2]; x1=0.40
  100 δx1,3 (preferential solvation parameter by NMP): 5.41
  D (derivative of Gibbs energy of transfer vs x1): –25.73 kJ·mol^–1
  G1,3 (Kirkwood–Buff integral): –271.3 cm^3·mol^–1
  G2,3 (Kirkwood–Buff integral): –517.0 cm^3·mol^–1
[2]; x1=0.45
  100 δx1,3 (preferential solvation parameter by NMP): 5.28
  D (derivative of Gibbs energy of transfer vs x1): –21.85 kJ·mol^–1
  G1,3 (Kirkwood–Buff integral): –250.7 cm^3·mol^–1
  G2,3 (Kirkwood–Buff integral): –503.6 cm^3·mol^–1
[2]; x1=0.50
  100 δx1,3 (preferential solvation parameter by NMP): 4.96
  D (derivative of Gibbs energy of transfer vs x1): –18.40 kJ·mol^–1
  G1,3 (Kirkwood–Buff integral): –234.5 cm^3·mol^–1
  G2,3 (Kirkwood–Buff integral): –487.7 cm^3·mol^–1
[2]; x1=0.55
  100 δx1,3 (preferential solvation parameter by NMP): 4.49
  D (derivative of Gibbs energy of transfer vs x1): –15.39 kJ·mol^–1
  G1,3 (Kirkwood–Buff integral): –221.7 cm^3·mol^–1
  G2,3 (Kirkwood–Buff integral): –469.5 cm^3·mol^–1
[2]; x1=0.60
  100 δx1,3 (preferential solvation parameter by NMP): 3.93
  D (derivative of Gibbs energy of transfer vs x1): –12.84 kJ·mol^–1
  G1,3 (Kirkwood–Buff integral): –211.6 cm^3·mol^–1
  G2,3 (Kirkwood–Buff integral): –449.4 cm^3·mol^–1
[2]; x1=0.65
  100 δx1,3 (preferential solvation parameter by NMP): 3.34
  D (derivative of Gibbs energy of transfer vs x1): –10.75 kJ·mol^–1
  G1,3 (Kirkwood–Buff integral): –203.7 cm^3·mol^–1
  G2,3 (Kirkwood–Buff integral): –428.7 cm^3·mol^–1
[2]; x1=0.70
  100 δx1,3 (preferential solvation parameter by NMP): 2.76
  D (derivative of Gibbs energy of transfer vs x1): –9.13 kJ·mol^–1
  G1,3 (Kirkwood–Buff integral): –197.7 cm^3·mol^–1
  G2,3 (Kirkwood–Buff integral): –409.5 cm^3·mol^–1
[2]; x1=0.75
  100 δx1,3 (preferential solvation parameter by NMP): 2.24
  D (derivative of Gibbs energy of transfer vs x1): –7.99 kJ·mol^–1
  G1,3 (Kirkwood–Buff integral): –193.3 cm^3·mol^–1
  G2,3 (Kirkwood–Buff integral): –394.9 cm^3·mol^–1
[2]; x1=0.80
  100 δx1,3 (preferential solvation parameter by NMP): 1.81
  D (derivative of Gibbs energy of transfer vs x1): –7.33 kJ·mol^–1
  G1,3 (Kirkwood–Buff integral): –190.1 cm^3·mol^–1
  G2,3 (Kirkwood–Buff integral): –388.5 cm^3·mol^–1
[2]; x1=0.85
  100 δx1,3 (preferential solvation parameter by NMP): 1.44
  D (derivative of Gibbs energy of transfer vs x1): –7.18 kJ·mol^–1
  G1,3 (Kirkwood–Buff integral): –187.8 cm^3·mol^–1
  G2,3 (Kirkwood–Buff integral): –394.4 cm^3·mol^–1
[2]; x1=0.90
  100 δx1,3 (preferential solvation parameter by NMP): 1.10
  D (derivative of Gibbs energy of transfer vs x1): –7.54 kJ·mol^–1
  G1,3 (Kirkwood–Buff integral): –186.0 cm^3·mol^–1
  G2,3 (Kirkwood–Buff integral): –417.8 cm^3·mol^–1
[2]; x1=0.95
  100 δx1,3 (preferential solvation parameter by NMP): 0.69
  D (derivative of Gibbs energy of transfer vs x1): –8.41 kJ·mol^–1
  G1,3 (Kirkwood–Buff integral): –184.2 cm^3·mol^–1
  G2,3 (Kirkwood–Buff integral): –467.3 cm^3·mol^–1
[2]; x1=1.00
  100 δx1,3 (preferential solvation parameter by NMP): 0.00
  D (derivative of Gibbs energy of transfer vs x1): –9.81 kJ·mol^–1
  G1,3 (Kirkwood–Buff integral): –181.8 cm^3·mol^–1
  G2,3 (Kirkwood–Buff integral): –563.4 cm^3·mol^–1
[3]; T=293.15 K
  Ideal mole fraction solubility (x3^id): 2.607 × 10^–3 mole fraction
[3]; T=298.15 K
  Ideal mole fraction solubility (x3^id): 3.079 × 10^–3 mole fraction
[3]; T=303.15 K
  Ideal mole fraction solubility (x3^id): 3.627 × 10^–3 mole fraction
[3]; T=308.15 K
  Ideal mole fraction solubility (x3^id): 4.260 × 10^–3 mole fraction
[3]; T=313.15 K
  Ideal mole fraction solubility (x3^id): 4.991 × 10^–3 mole fraction
[3]; ideal, Thm=303.0 K
  TΔsolnS°: 10.61 kJ·mol^–1
  ΔsolnG° (apparent Gibbs energy of dissolution): 14.16 kJ·mol^–1
  ΔsolnH° (apparent enthalpy of dissolution): 24.78 kJ·mol^–1
  ΔsolnS° (apparent entropy of dissolution): 35.03 J·mol^–1·K^–1
[4]
  Hildebrand solubility parameter δ3: 32.1 MPa^1/2

From paper PMC9609070 (ACS Omega, 2022)
